Assays:
[1] = tested on: H9 hESCs; assay: Expansion of hESCs in stirred suspension bioreactors; format: cell-based, human
Procedure: Bioreactor Maintenance of hESCs. H9 cells passaged in static on Matrigel™ or using feeder layers were pre-treated for 1 hr with 10 μM Y-27632 (Sigma), then dissociated as described earlier. The hESCs were then inoculated into 125 ml bioreactors (NDS Technologies) at 1.8×10^4 cells/ml. The bioreactors contained 100 ml of mTeSR medium supplemented with 10 μM Y-27632 and 0.1 nM Rapamycin (Sigma), were agitated at 100 rpm and were incubated under standard conditions (37° C., 5% CO2, saturated humidity). After 24 hrs in suspension culture, the Y-27632 was removed and replaced with mTeSR medium containing 0.1 nM Rapamycin. […] The single cell suspension of hESCs was split 1:5 and inoculated into a new bioreactor containing 100 ml of mTeSR medium supplemented with 10 μM Y-27632 and 0.1 nM Rapamycin for 24 hrs.
In the bioreactor systems, hESCs (collected from static cultures containing Matrigel™ or human foreskin fibroblast feeder (HFF) cells) were inoculated at 1.8×10^4 cells/ml into 100 ml of mTeSR medium (Stemcell Technologies Inc.) and agitated at 100 rpm.

[2] = tested on: hESCs; settings: cited from earlier work

Question: With `C[C@@H](N)[C@H]1CC[C@H](C(=O)Nc2ccncc2)CC1` [Y-27632] as the compound, how does the hESC aggregate formation ([1]; 10 μM ROCK inhibitor and 0.1 nM Rapamycin together, 1.8×10^4 cells/ml, mTeSR, 100 rpm) read?
Answer: form tight aggregates

Question: What about the “hESC aggregate formation when the inhibitor is left out” value ([1]; ROCK inhibitor excluded from bioreactor cultures, by day 5, data not shown) of the same compound?
Answer: noticeably fewer aggregates were observed and mainly single cells were observed by day 5

Question: What about the “lag phase of the cultures” value ([1]; exposure to ROCK inhibitor decreased from 4 days to 24 hrs) of the same compound?
Answer: substantial decrease in the lag phase

Question: What about the overall expansion ([1]; non-passaged cultures, ROCK inhibitor day 0 to day 4, collagenase every 5 days, over 20 days) of the same compound?
Answer: 67 fold

Question: What about the “survival rate of dissociated, single hESCs” value [2] of the same compound?
Answer: increases the survival rate
